Results from publication PMC10423278, “Delivered complementation in planta (DCIP) enables measurement of peptide-mediated protein delivery efficiency in plants” (Communications Biology, 2023).
No end group written: not given here.

Legend:
[1] = tested on: DCIP expressing N. benthamiana leaves; test: Delivered complementation in planta (DCIP), infiltrated leaf discs, confocal imaging of nuclear sfGFP/mCherry; assay type: cell-based, Nicotiana benthamiana; conditions: for DCIP delivery signal, statistical significance vs water infiltration control: N = 6, Kruskal–Wallis/Dunn
Protocol: The DCIP protocol involves transient expression of DCIP in N. benthamiana. 3 d.p.i., leaves are infiltrated with an aqueous solution of cargo that contains the GFP11 tag. Immediately after infiltration, the infiltrated leaves are either left intact or a leaf disc is excised from the infiltrated area and plated on pH 5.7 ½ MS. After a predetermined incubation time, the leaves are imaged on a confocal laser scanning microscope. For quantitative imaging, the resulting images are then automatically analyzed using Cell Profiler[30] for nuclear sfGFP and mCherry fluorescence (Fig. 1a). A detailed methodology is provided in the “Methods” section.
Three days after agroinfiltration, DCIP-expressing leaves were infiltrated with the treatment solutions. Unless otherwise stated, an 8 mm punch was then excised from the infiltrated area and plated, abaxial side up, onto ½ MS pH 5.7 agar plates. The plates were then left to incubate under ambient conditions for 4–5 h before imaging. For cold temperature treatment, after infiltration with ice-cold solutions of R9-GFP11 and disc excision, the leaf discs were plated onto ice-cold agar and immediately transferred to a 4 °C refrigerator for incubation. After incubation, the agar plates with leaf discs were kept on ice until the moment of imaging. For in situ incubation, leaves were simply infiltrated and the plant was returned to the growing chamber for incubation. All peptides were dissolved in sterile water and all recombinant proteins were dissolved in 10 mM Tris pH 7.4, 10 mM NaCl for infiltration.
Excised leaf discs were imaged on a Zeiss LSM880 laser scanning confocal microscope. Images for semi-quantitative analysis were collected using a ×20/1.0NA Plan-apochromat water immersion objective and larger field-of-views were collected using a ×5 objective. Leaf discs were mounted by sandwiching a droplet of water between the leaf disc and a #1.5 cover glass. BFP, sfGFP, mCherry, and chloroplast autofluorescence images were acquired by excitation with a 405, 488, 561, and 635 nm laser, respectively. The emission bands collected for BFP, sfGFP, mCherry, and autofluorescence were 410–529, 493–550, 578–645, and 652–728 nm, respectively. All images were collected such that the aperture was set to 1 Airy-unit in the mCherry channel. Images and profile plots were prepared for publication using Zen Blue software. Profile plots were smoothed by taking a moving window of three measurements and normalized to the maximum smoothed intensity for each color. For quantification experiments, z-stacks were acquired with the imaging depth set to capture the epidermal layer down to the point where mCherry nuclei could no longer be detected. z-stacks from four fields of view were acquired for every treatment condition. Quantitative image analysis and downstream processing was performed using Cell Profiler 3.0. […] Cell Profiler was then used to quantify the number, mCherry intensity, GFP intensity, and red (mCherry)/green (sfGFP) ratio of the projected nuclei.
Data obtained from Cell Profiler was processed using a script written in Python 3.9. Using the Cell Profiler data, GFP positive nuclei were counted using a Python script by setting a threshold defined as a one-tailed 99% confidence interval above the mean green/red ratio in the untreated control or water infiltration control of each experiment. […]

f-actin = test: cytoDCIP delivery-mediated actin labeling (Lifeact/f-actin scaffolding); assay type: cell-based, Nicotiana benthamiana
Description: After confirming that recombinant proteins could be efficiently delivered into plant cells with R9 CPP, we asked if delivered proteins could subsequently mediate protein–protein interactions. Being able to mediate protein–protein interactions using delivered proteins could enable new technologies that alter plant physiology. Therefore, in a proof-of-concept experiment, we delivered the 1.9 kDa f-actin binding peptide, Lifeact[50], tagged with GFP11 and R9 (Fig. 6a) into cytoDCIP expressing N. benthamiana leaves. In this scheme, when Lifeact is internalized, GFP11 acts as a scaffold to tether cytoDCIP to actin filaments through the Lifeact/f-Actin interaction. […]
Excised leaf discs were imaged on a Zeiss LSM880 laser scanning confocal microscope. Images for semi-quantitative analysis were collected using a ×20/1.0NA Plan-apochromat water immersion objective and larger field-of-views were collected using a ×5 objective. […] For quantification experiments, z-stacks were acquired with the imaging depth set to capture the epidermal layer down to the point where mCherry nuclei could no longer be detected. z-stacks from four fields of view were acquired for every treatment condition. Quantitative image analysis and downstream processing was performed using Cell Profiler 3.0. […]

downstream AtWUS genes = test: RT-qPCR of direct targets of AtWUS in treated seedlings; assay type: in vivo, Arabidopsis thaliana; conditions: 24 h
Protocol: The previous results in N. benthamiana motivated us to determine whether or not the delivered AtWUS is transcriptionally active. We treated 12-day-old Arabidopsis seedlings for 24 h with 1 µM GFP11-AtWUS-R9. A. thaliana was chosen as a model species due to the well-characterized AtWUS pathway in A. thaliana. Seedlings were subsequently harvested and subjected to RT-qPCR analysis for six known direct targets of AtWUS (Fig. 7d). […] Ectopic expression of AtWUS downregulates the expression of cell identity markers ARR6, AS2, KAN1/2 and YAB3 by binding directly to their promoters[56],[57], and upregulates the expression of its own negative regulator, CLV3[58]. […] In this second experiment, 3 µM of protein was also used due to apparent batch-to-batch variation of activity and lower purity of the recombinant protein (Supplemental Fig. S12b, c).
Arabidopsis (Col-0) seedlings were grown in 12-well culture plates with 8–10 seedlings per well in 1 mL of 1x MS media supplemented with 0.5% sucrose and 2.5 mM MES, pH 5.7. Seeds were sterilized by washing in 70% ethanol for 30 s followed by a 15-min incubation in 50% bleach supplemented with 0.5% Tween-20 and rinsed 5x with DI water. Sterilized seeds were stratified in plates at 4 °C for 3 days after plating. Seedlings were grown at 22 °C under 16-h photoperiods for 12 days. To treat seedlings, the liquid media in each well was replaced with control and WUSCHEL treatments. Control wells were refreshed with 1 mL of MS growth media. WUSCHEL proteins were prepared for use by dialysis into 10 mM MES pH 5.7 for 2 h before dilution to their final concentration. Treatment wells were refreshed with 1 mL of 1 or 3 μM of protein (R9-GFP11, GFP11-AtWUS-R9, GFP11-AtWUS) dissolved in MS growth media. […]
Total RNA was extracted from Arabidopsis seedlings using an RNeasy Plant Mini Kit (Qiagen). […] Relative gene expression was determined using the ddCt method[80] using SAND1 as the reference gene. Relative gene expression was determined from four biological pools each containing 8–10 seedlings. […]

[2] = tested on: cytoDCIP-expressing N. benthamiana leaf; test: cytoDCIP nuclear localization of delivered AtWUS; assay type: cell-based, Nicotiana benthamiana; conditions: 140 µM, leaf disc, 6 h
Description: After establishing the feasibility of using DCIP to assess recombinant protein delivery in intact leaves, we sought to examine R9-mediated delivery of the Arabidopsis plant morphogenic transcription factor, WUSCHEL (AtWUS), in N. benthamiana leaves. AtWUS was chosen as a candidate cargo due to its applications for somatic embryogenesis in plants and its high degree of molecular characterization[54],[55]. […] Because AtWUS is a transcription factor, we also expected to see GFP11-AtWUS-R9 localize to the nucleus without the SV40 NLS of DCIP. To test this, we infiltrated a cytoDCIP-expressing N. benthamiana leaf with 140 µM GFP11-AtWUS-R9. If the delivered AtWUS has active NLS activity, we would expect green fluorescence localized to only the nucleus and excess, uncomplemented mCherry-GFP1-10 to remain in the cytosol. […]
Excised leaf discs were imaged on a Zeiss LSM880 laser scanning confocal microscope. Images for semi-quantitative analysis were collected using a ×20/1.0NA Plan-apochromat water immersion objective and larger field-of-views were collected using a ×5 objective. […] For quantification experiments, z-stacks were acquired with the imaging depth set to capture the epidermal layer down to the point where mCherry nuclei could no longer be detected. z-stacks from four fields of view were acquired for every treatment condition. […]

For `CC[C@H](C)[C@H](NC(=O)CNC(=O)[C@H](C)NC(=O)[C@H](C)NC(=O)[C@H](CC(N)=O)NC(=O)[C@@H](NC(=O)[C@H](Cc1ccc(O)cc1)NC(=O)[C@H](CCC(=O)O)NC(=O)[C@H](Cc1c[nH]cn1)NC(=O)[C@H](CC(C)C)NC(=O)[C@@H](NC(=O)[C@H](CCSC)NC(=O)[C@H](Cc1c[nH]cn1)NC(=O)[C@H](CC(=O)O)NC(=O)[C@H](CCCNC(=N)N)NC(=O)[C@H](CO)NC(=O)CNC(=O)[C@H](CO)NC(=O)CNC(=O)[C@H](CC(C)C)NC(=O)[C@H](Cc1ccc(O)cc1)NC(=O)[C@H](CCCCN)NC(=O)[C@H](CC(C)C)NC(=O)[C@@H](NC(=O)[C@H](CCCCN)NC(=O)[C@H](CCCCN)NC(=O)[C@H](Cc1ccccc1)NC(=O)[C@H](CC(C)C)NC(=O)[C@H](CCCCN)NC(=O)[C@@H](N)CCCCN)[C@@H](C)CC)C(C)C)C(C)C)C(=O)N[C@H](C(=O)O)[C@@H](C)O` [BP100-GFP11], the “sfGFP complementation observed by confocal imaging (qualitative)” value ([1]; 100 μM peptide, 4–5 h post-infiltration) was “rare instances of successful delivery” and the “DCIP delivery signal, statistical significance vs water infiltration control” value ([1]; 100 μM, 4–5 h) was “no statistically significant signal”.

In the case of `C/C1=C/C(=O)O[C@@H]2C[C@@H](CC[C@H](C)/C=C\CC1)O[C@@](O)([C@@H]1CSC(=O)N1)C2` [LatB, latrunculin B, reference compound], the “actin filaments on cotreatment with LatB” value (f-actin; 25 µM LatB cotreated with GFP11-Lifeact-R9, 6 h) is reported as “no actin filaments were observed”.

“MGSSHHHHHHENLYFQSNARDHMVLHEYVNAAGITGGGGSGGGGSYFQSNAMGVADLIKKFESISKEEGIGSGSNGNSGSVSRRRRRRRRR* [GFP11-Lifeact-R9]” was tested, and the “localization of sfGFP/mCherry signal in cytoDCIP leaves (actin filament labeling)” value (f-actin; 120 µM, leaf discs, 6 h, pavement cells) was “robust labeling of actin filaments”.

RDHMVLHEYVNAAGIT [GFP11] was tested, and the “DCIP delivery signal, statistical significance vs water infiltration control” value ([1]; 100 μM, 4–5 h) was “no statistically significant signal”.

In the case of “RKKRRQRRRGSGSRDHMVLHEYVNAAGIT [TAT-GFP11]”, the “delivery efficiencies (percent GFP-positive nuclei)” value ([1]; 100 μM CPP-GFP11 conjugate, 4–5 h, N = 6) is reported as 30–80% and the “delivery efficiency normalized to R9 CPP” value ([1]; 100 μM, 4–5 h, N = 6) is reported as 0.87 times.

B1: GFP11-AtWUS: recombinant AtWUS with GFP11 tag, without R9 fusion, 38.5 kDa (plasmid 1BR9-AtWUSSTOP) (protein, UniProt Q9SB92 1-292, looked up)
Protein WUSCHEL: MEPPQHQHHHHQADQESGNNNNNKSGSGGYTCRQTSTRWTPTTEQIKILKELYYNNAIRSPTADQIQKITARLRQFGKIEGKNVFYWFQNHKARERQKKRFNGTNMTTPSSSPNSVMMAANDHYHPLLHHHHGVPMQRPANSVNVKLNQDHHLYHHNKPYPSFNNGNLNHASSGTECGVVNASNGYMSSHVYGSMEQDCSMNYNNVGGGWANMDHHYSSAPYNFFDRAKPLFGLEGHQEEEECGGDAYLEHRRTLPLFPMHGEDHINGGSGAIWKYGQSEVRPCASLELRLN
modifications: GFP11 tag
B1 was tested, and the “CLV3 expression in GFP11-AtWUS-treated plants” value (downstream AtWUS genes; 3 µM) was “CLV3 downregulation”, the “tested AtWUS target genes regulated in an expected manner, first experimental repeat” value (downstream AtWUS genes; 3 µM, six genes, N = 4) was 3/6 and the “tested AtWUS target genes regulated in an expected manner, second experimental repeat” value (downstream AtWUS genes; six genes, N = 4, repeat) was 1/6. The “nuclear localization of delivered protein in cytoDCIP leaf” value [2] was “possessed nuclear localization activity”.
